Experimental data from ChEMBL document CHEMBL1201862, “PubChem BioAssay data set” (2004).
Activity calls are given as the source filed them.

Tests used:
Type in all cases: functional
[1] = target: T1, Oxysterols receptor LXR-beta (Homo sapiens, UniProt P55055); assay: LXR agonists, Gal4 luciferase reporter, dose response, counter-screen for ssDAF-12 agonist project, cell-based, luminescence, HEK293, S. stercoralis campaign (AID 720737); conditions: read-out: IC50 (the source's name)
T1 sequence (P55055 whole entry): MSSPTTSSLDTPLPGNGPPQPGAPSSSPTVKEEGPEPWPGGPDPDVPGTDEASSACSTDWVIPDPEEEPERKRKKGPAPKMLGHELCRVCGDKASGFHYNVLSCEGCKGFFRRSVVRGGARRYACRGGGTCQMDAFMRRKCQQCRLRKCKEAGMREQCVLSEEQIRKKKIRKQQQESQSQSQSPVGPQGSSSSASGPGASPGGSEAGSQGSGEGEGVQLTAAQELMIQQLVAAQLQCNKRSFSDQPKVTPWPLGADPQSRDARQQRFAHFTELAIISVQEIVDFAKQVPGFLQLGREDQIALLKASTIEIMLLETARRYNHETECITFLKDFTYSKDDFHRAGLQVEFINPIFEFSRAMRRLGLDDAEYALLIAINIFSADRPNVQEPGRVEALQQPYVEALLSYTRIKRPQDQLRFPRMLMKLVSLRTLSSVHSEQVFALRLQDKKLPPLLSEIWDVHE

[2] = target: T2, Sentrin-specific protease 6 (Homo sapiens, UniProt Q9GZR1);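 note: Luminescence-based dose-response confirmatory assay of SENP6 inhibition, following up an ultra-high-throughput screen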
T2 sequence (Q9GZR1 whole entry): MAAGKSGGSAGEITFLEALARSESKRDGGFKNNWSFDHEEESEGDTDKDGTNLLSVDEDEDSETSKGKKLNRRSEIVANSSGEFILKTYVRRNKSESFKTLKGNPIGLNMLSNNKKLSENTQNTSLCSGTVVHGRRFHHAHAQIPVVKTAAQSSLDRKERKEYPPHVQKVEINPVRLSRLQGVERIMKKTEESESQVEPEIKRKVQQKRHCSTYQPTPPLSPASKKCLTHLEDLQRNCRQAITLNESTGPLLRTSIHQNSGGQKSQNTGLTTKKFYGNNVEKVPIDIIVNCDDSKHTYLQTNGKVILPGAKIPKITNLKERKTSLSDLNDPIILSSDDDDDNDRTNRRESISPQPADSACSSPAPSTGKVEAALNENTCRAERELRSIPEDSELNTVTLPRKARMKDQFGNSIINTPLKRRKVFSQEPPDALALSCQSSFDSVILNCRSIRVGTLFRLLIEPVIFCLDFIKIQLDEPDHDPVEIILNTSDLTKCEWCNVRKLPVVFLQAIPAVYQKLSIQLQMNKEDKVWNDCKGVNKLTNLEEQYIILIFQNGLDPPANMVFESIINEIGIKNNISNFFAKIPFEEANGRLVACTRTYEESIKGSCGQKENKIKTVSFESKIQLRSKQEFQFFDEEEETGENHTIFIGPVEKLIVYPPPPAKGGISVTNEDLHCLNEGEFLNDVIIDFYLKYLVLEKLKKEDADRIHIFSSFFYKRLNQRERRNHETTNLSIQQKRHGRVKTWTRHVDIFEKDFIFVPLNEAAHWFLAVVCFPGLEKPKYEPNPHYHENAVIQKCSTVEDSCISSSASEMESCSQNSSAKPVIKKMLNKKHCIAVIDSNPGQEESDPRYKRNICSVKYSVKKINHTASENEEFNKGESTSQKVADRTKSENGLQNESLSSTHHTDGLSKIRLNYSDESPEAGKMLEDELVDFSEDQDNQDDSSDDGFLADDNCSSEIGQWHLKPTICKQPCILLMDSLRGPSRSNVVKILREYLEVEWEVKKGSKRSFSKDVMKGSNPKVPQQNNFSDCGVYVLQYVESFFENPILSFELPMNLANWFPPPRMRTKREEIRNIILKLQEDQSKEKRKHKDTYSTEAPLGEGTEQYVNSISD

[3] = target: T3, Sentrin-specific protease 8 (Homo sapiens, UniProt Q96LD8);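 note: luminescence read-out of SENP8 inhibition, dose-response confirmation following an ultra-high-throughput screen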
T3 sequence (Q96LD8 whole entry): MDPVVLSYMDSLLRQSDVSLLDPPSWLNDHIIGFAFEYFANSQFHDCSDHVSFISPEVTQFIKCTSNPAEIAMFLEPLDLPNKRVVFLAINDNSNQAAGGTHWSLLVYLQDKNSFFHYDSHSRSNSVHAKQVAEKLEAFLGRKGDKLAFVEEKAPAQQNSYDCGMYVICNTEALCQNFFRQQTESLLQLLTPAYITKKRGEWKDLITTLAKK

[4] = target: T4, Short transient receptor potential channel 4 (Mus musculus, UniProt Q9QUQ5); assay: block of DAMGO-driven TRPC4 calcium entry – cell-based, HEK293 TRPC4/mu-opioid, Fluo-4 calcium, dose response (AID 434942);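 note: potency of inhibitors blocking the TRPC4 calcium response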
T4 sequence (Q9QUQ5 whole entry): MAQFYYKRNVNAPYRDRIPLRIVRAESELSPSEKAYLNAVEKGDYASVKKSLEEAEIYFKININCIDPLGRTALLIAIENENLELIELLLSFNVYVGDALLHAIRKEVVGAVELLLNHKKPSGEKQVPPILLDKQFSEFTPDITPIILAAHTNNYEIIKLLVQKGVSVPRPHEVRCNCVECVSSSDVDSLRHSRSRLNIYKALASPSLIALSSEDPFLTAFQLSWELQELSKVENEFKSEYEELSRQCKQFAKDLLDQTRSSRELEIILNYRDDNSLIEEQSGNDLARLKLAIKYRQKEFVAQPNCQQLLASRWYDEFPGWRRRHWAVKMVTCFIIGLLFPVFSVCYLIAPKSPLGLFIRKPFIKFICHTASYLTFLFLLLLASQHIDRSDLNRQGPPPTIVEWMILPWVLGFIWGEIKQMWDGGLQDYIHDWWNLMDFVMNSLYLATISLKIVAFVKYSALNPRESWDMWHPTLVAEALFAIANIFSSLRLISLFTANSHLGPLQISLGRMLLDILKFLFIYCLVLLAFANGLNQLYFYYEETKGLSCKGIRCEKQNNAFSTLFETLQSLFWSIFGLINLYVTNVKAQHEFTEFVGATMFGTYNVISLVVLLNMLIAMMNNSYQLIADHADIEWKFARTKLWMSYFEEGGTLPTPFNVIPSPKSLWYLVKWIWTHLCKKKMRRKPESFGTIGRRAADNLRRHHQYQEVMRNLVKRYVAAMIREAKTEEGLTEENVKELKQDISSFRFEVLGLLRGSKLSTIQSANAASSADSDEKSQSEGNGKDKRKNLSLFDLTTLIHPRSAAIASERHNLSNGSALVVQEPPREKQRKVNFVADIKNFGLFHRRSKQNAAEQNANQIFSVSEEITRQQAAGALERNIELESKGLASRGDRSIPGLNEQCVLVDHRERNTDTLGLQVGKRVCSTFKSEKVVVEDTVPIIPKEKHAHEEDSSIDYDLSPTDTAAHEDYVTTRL

| SMILES | EC50 [1] | IC50 [2] | IC50 [3] | EC50 [4] |
| --- | --- | --- | --- | --- |
| Oc1ccccc1/C=C/c1noc(-c2ccccc2O)n1 | > 67.6 µM (inactive) | > 100 µM (inactive) | > 100 µM (inactive) | – |
| Cc1nn(-c2ccccc2)c(Cl)c1CN(C(=O)CCl)c1ccc(Cl)cc1 | – | – | – | 0.237 µM (active) |
| COc1ccccc1N1C(=O)Cc2ccccc2C1=O | – | 10.6 µM (active) | 49.4 µM (active) | – |
| Cc1cccc(N=Nc2ccc(N(C)C)cc2)c1 | – | 4.4 µM (active) | 3.74 µM (active) | – |
